This is an account of results in US8809618B2, “Transgenic mouse for screening and for studies of the pharmacodynamics and pharmacokinetics of ligands acting on the oestrogen receptor and its intracellular receptors, and method for the preparation thereof” (T.O.P. (Transgenic Operative Products) S.R.L., priority 2000, dated 2014).

Assay [1] relates to ER reporter in primary bone marrow cells. In words: Luciferase expression in primary bone marrow cells from transgenic mice. Format: cell-based, mouse. Particulars: 16 hours; for luciferase accumulation, ligand alone: E2 0.01-10 nM, ICI and T 100 nM, Prog and Dex 10 nM; for luciferase accumulation in the presence of 1 nM E2: 100 nM ligand plus 1 nM E2.
Description: Two millions of bone marrow cells were suspended in phenol red-free RPMI 1640 with 10% stripped serum. […] Bars represent the average.+−.s.e.m. of 5 individual experiments each done in triplicate. *(P<0.01 as compared to the control), **(P<0.005 as compared to the control), ° (P<0.05 as compared to the T-treated); P were calculated with ANOVA followed by Scheffe test. […] As a control, we also tested progesterone and dexamethasone (10 nM).
The next assay has as its system oestrogen receptor. In words: Time course of luciferase activity in bone and liver of transgenic mice after E2. Format: in vivo, mouse. Particulars: s.c. 50 μg/kg, sacrificed after 3, 6 or 16 hours.
The subject of assay [2] is oestrogen receptors. In words: Tissue distribution of E2-dependent luciferase induction in ovariectomised female transgenic mice. It counts as in vivo, mouse. The note with it: 26 tissues, ovariectomised 2-month old females, s.c., 16 hours. The protocol: (§1) To verify the expression of the transgene in the different tissues and its inducibility by oestrogens, 4 independent experiments were carried out on 8 female individuals of each line (4 heterozygotic and 4 homozygotic). For each experiment, two female individuals were ovariectomised. […] The suspension was frozen and thawed three times, and centrifuged for 30 minutes at 13,000 g; the supernatant was collected and equal quantities of protein, measured by the colorimetric method of Bradford, were subjected to enzymatic testing to reveal the activity of the enzyme luciferase. The method for detection of the activity of the reporter was carried out with a kit by the procedure recommended by the producer (Sigma), mixing ca. 20 μg of protein extract with the luciferin substrate in the presence of 0.5 mM ATP and 30 mM DTT and measuring the […] emitted using a luminometer (Lumat BL 9500, Berthold). […] Luciferase enzymatic activity was evaluated and plotted in the graph. […]
The pharmacodynamics of any compound acting via intracellular receptors can also be correctly predicted by the transgenic model of the invention. As an illustrative example, […] luciferase activity was measured in 26 different tissues from 2-month old female mice which had been ovariectomised 2 weeks prior to the experiment. […]

Assay [3] deals with oestrogen receptors. In words: Agonistic/antagonistic action of ER ligands: luciferase activity in tissues of line 2 ERE-luciferase transgenic mice. Particulars: line 2 mice; for effect on E2-dependent activation of luciferase expression in vivo: 250 μg/kg one hour before 50 μg/kg E2. It counts as in vivo, mouse. The procedure:
To verify the expression of the transgene in the different tissues and its inducibility by oestrogens, 4 independent experiments were carried out on 8 female individuals of each line (4 heterozygotic and 4 homozygotic). For each experiment, two female individuals were ovariectomised. With the aim of reducing the oestrogens present in the bloodstream of the ovariectomised animals below the detection limit, there was a wait of two weeks before the induction experiment was carried out; the individuals were then subjected to subcutaneous (s.c.) injection of mineral oil with or without 50 μg/kg of dissolved 17-β oestradiol; 16 hours after the treatment, the individuals were sacrificed and the following tissues were dissected out of them: uterus, liver, spleen, lung, heart, kidney, hypothalamus and brain. The protein extracts were obtained by disintegration of the tissue with a homogenizer in the presence of a phosphate lysis buffer consisting of 0.1 M KH2PO4, 0.1 M K2HPO4, 1 mM DTT, 4 mM EGTA and 4 mM EDTA at pH 7.8. The suspension was frozen and thawed three times, and centrifuged for 30 minutes at 13,000 g; the supernatant was collected and equal quantities of protein, measured by the colorimetric method of Bradford, were subjected to enzymatic testing to reveal the activity of the enzyme luciferase. The method for detection of the activity of the reporter was carried out with a kit by the procedure recommended by the producer (Sigma), mixing ca. 20 μg of protein extract with the luciferin substrate in the presence of 0.5 mM ATP and 30 mM DTT and measuring the […] emitted using a luminometer (Lumat BL 9500, Berthold). With reference to FIGS. 5 to 7 of the attached drawings, individuals were subcutaneously injected (s.c.) with 50 μg/Kg 17β-estradiol (E2) or with vehicle (vegetable oil) and sacrificed at 24 hours. Luciferase enzymatic activity was evaluated and plotted in the graph. The arbitrary units are obtained considering the luciferase activity in the uterus of control individuals=100.
By subcutaneous injection of the substance in the presence or in the absence of 17-β oestradiol it is in fact possible to compare the distribution and the intensity of expression of the luciferase gene in the various tissues and to compare it with the control or with the injection of 17-β oestradiol alone. The effect of in vivo administration of two known ER antagonists was investigated in line 2 of transgenic mice. […] Luciferase is expressed as fold induction obtained as the ratio between luciferase activity in ligands treated/control mice.

In assay [4] the test system is oestrogen receptors. The experiment in a line: Xenooestrogen activity: luciferase activity in liver and brain of transgenic mice injected s.c. with DDT. Format: in vivo, mouse. The note with it: s.c. 5000 μg/ml. The protocol: as §1

Entries after “also recorded” stand apart in the source; their conditions may differ.

As to `C[C@]12CC[C@@H]3c4ccc(O)cc4CC[C@H]3[C@@H]1CC[C@@H]2O` [E2, 17β-estradiol], in assay [1], the “luciferase accumulation, ligand alone” value is given as “dose-dependent increase”. In addition, the “time of maximal luciferase accumulation” value with oestrogen receptor stood at 6 h. Also, in the assay on oestrogen receptors [2], the “luciferase enzyme content in tissues compared to controls” value was “induced an increase in the enzyme content compared to controls in oestrogen target organs”.
`CC(=O)[C@H]1CC[C@H]2[C@@H]3CCC4=CC(=O)CC[C@]4(C)[C@H]3CC[C@]12C` [progesterone]: the “luciferase accumulation, ligand alone” value in assay [1] is listed as “did not have any effect”.
Regarding 4-hydroxytamoxifen, in assay [1], the “luciferase accumulation in the presence of 1 nM E2” value is “higher luciferase accumulation, yet the level reached was still lower than with E2 alone” and the “luciferase accumulation, ligand alone” value is recorded as “significant increase in luciferase levels even though lower than E2 at the same concentration”. Also, the “agonist activity on luciferase expression in vivo” value in the assay on oestrogen receptors [3] (250 μg/Kg alone, liver and brain) is “partial agonist activity”. Besides, in the assay on oestrogen receptors [3], the “effect on E2-dependent activation of luciferase expression in vivo” value (shortened to “effect on E2-dependent activation”) was “blockade”. Besides, the “effect on E2-dependent activation” value in the assay with oestrogen receptors [3] (listed as tamoxifen) is “inhibits the E2-dependent activation of luciferase expression”.
As for `Clc1ccc(C(c2ccc(Cl)cc2)C(Cl)(Cl)Cl)cc1` [DDT], the “persistence of luciferase induction” value with oestrogen receptors [4] was determined as 72 h. Further, in the assay on oestrogen receptors [4] (sacrificed at 3-72 hours, vs vehicle), the “time of maximal induction of luciferase activity” value amounted to 24 h.
Turning to `C[C@]12CC[C@@H]3c4ccc(O)cc4C[C@@H](CCCCCCCCC[S+]([O-])CCCC(F)(F)C(F)(F)F)[C@H]3[C@@H]1CC[C@@H]2O` (some centres unmarked) [ICI 182,780], in assay [1], the “luciferase accumulation in the presence of 1 nM E2” value is “blocked” and the “luciferase accumulation, ligand alone” value was “did not sort [sic] any effect”. Besides, the “effect on E2-dependent activation” value in the assay on oestrogen receptors [3] is “blockade; also recorded: inhibits the E2-dependent activation of luciferase expression”.
